Laboratory results from patent US8598202B2, “Aryl-hydroxyethylamino-pyrimidines and triazines as modulators of fatty acid amide hydrolase” (Janssen Pharmaceutica NV, priority 2008, dated 2013).
Counter-ions that a name gives are not always drawn.

What was measured:
FAAH = biological target: T1, FAAH (Homo sapiens, UniProt O00519); assay: Assay Method 1: FAAH assay, 3H-anandamide hydrolysis in homogenate of T84 cells or SK-N-MC cells transfected with human FAAH
T1 sequence (O00519 1-579): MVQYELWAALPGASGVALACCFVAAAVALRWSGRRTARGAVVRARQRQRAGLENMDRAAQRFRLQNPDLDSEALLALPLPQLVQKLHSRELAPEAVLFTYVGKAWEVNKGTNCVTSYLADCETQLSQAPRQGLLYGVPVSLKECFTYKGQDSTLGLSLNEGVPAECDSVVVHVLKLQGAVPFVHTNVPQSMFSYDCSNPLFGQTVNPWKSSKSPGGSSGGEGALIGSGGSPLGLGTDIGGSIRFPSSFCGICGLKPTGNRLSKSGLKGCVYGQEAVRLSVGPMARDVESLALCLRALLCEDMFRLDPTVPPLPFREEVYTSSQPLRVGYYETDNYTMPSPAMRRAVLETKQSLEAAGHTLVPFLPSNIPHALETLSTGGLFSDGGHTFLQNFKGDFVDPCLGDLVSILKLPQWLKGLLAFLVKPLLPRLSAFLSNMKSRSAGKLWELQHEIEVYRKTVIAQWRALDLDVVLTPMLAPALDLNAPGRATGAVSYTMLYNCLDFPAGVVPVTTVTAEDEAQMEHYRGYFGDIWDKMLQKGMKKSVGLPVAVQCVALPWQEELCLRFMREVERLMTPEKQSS

Rat FAAH-1 = biological target: T2, Rat FAAH-1 (Rattus norvegicus, UniProt P97612); assay: Assay Method 2: rat FAAH-1 assay, 3H-anandamide hydrolysis in homogenate of SK-N-MC cells transfected with rat FAAH
T2 sequence (P97612 1-579): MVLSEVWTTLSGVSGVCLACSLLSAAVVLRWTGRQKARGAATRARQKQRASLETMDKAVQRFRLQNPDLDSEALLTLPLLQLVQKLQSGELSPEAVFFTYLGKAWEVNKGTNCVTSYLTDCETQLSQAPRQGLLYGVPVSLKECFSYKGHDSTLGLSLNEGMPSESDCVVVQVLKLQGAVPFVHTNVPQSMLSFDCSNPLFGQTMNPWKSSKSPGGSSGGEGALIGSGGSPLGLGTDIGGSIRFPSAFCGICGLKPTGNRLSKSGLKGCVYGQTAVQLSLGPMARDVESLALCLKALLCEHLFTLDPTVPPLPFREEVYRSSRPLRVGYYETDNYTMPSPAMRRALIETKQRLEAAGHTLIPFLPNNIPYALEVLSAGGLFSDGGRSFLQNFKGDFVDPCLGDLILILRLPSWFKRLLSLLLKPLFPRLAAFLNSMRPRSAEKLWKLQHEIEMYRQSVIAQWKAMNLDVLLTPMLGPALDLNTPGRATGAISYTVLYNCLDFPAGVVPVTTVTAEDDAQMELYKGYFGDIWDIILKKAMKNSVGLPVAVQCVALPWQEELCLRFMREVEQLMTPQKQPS

O[C@@H](CNc1cc(-c2ccc3c(C(F)(F)C(F)(F)F)noc3c2)ncn1)c1ccc(F)cc1 [Example 176, (1R)-1-(4-fluorophenyl)-2-({6-[3-(pentafluoroethyl)-1,2-benzisoxazol-6-yl]pyrimidin-4-yl}amino)ethanol trifluoroacetic acid salt]
IC50 (FAAH): 9 nM | IC50 (Rat FAAH-1): 10 nM

COc1ccc(C(O)CNc2cc(-c3ccc(C(F)(F)F)c(Cl)c3)ncn2)cc1Cl (centres unmarked) [Example 203, 1-(3-Chloro-4-methoxyphenyl)-2-({6-[3-chloro-4-(trifluoromethyl)phenyl]pyrimidin-4-yl}amino)ethanol]
IC50 (FAAH): 270 nM | IC50 (Rat FAAH-1): 200 nM

OC(CNc1cc(-c2ccc(C(F)(F)F)c(Cl)c2)ncn1)c1ccccc1OC(F)F (centres unmarked) [Example 189, 2-({6-[3-Chloro-4-(trifluoromethyl)phenyl]pyrimidin-4-yl}amino)-1-[2-(difluoromethoxy)phenyl]ethanol]
IC50 (FAAH): 170 nM | IC50 (Rat FAAH-1): 150 nM

O[C@@H](CNc1cc(-c2cc(F)cc(C(F)(F)F)c2)ncn1)c1ccccc1 [Example 42, (1R)-2-({6-[3-Fluoro-5-(trifluoromethyl)phenyl]pyrimidin-4-yl}amino)-1-phenylethanol trifluoroacetic acid salt]
IC50 (FAAH): 206 nM | IC50 (Rat FAAH-1): 793 nM

CCc1ccc(-c2cc(NCC(O)c3ccccc3)ncn2)cc1 (centres unmarked) [Example 6, 2-{[6-(4-Ethylphenyl)pyrimidin-4-yl]amino}-1-phenylethanol]
IC50 (FAAH): 33 nM | IC50 (Rat FAAH-1): 233 nM

CCCOc1ccc(-c2cc(NC[C@H](O)c3ccccc3)ncn2)cc1F [Example 35, (1R)-2-{[6-(3-Fluoro-4-propoxyphenyl)pyrimidin-4-yl]amino}-1-Phenylethanol trifluoroacetic acid salt]
IC50 (FAAH): 43 nM | IC50 (Rat FAAH-1): 180 nM

O[C@@H](CNc1cc(-c2ccc3cc[nH]c3c2)ncn1)c1ccccc1 [Example 53, (1R)-2-{[6-(1H-Indol-6-yl)pyrimidin-4-yl]amino}-1-phenylethanol trifluoroacetic acid salt]
IC50 (FAAH): 765 nM | IC50 (Rat FAAH-1): > 10000 nM

O[C@@H](CNc1cc(-c2cc3cc(C(F)(F)F)ccc3s2)ncn1)c1ccccc1 [Example 184, (1R)-1-Phenyl-2-({6-[5-(trifluoromethyl)-1-benzothiophen-2-yl]pyrimidin-4-yl}amino)ethanol trifluoroacetic acid salt]
IC50 (FAAH): 31 nM | IC50 (Rat FAAH-1): 160 nM

OC(CNc1cc(-c2ccc(C(F)(F)F)c(Cl)c2)ncn1)c1cc(C(F)(F)F)ccc1F (centres unmarked) [Example 205, 2-({6-[3-Chloro-4-(trifluoromethyl)phenyl]pyrimidin-4-yl}amino)-1-[2-fluoro-5-(trifluoromethyl)phenyl]ethanol]
IC50 (FAAH): 80 nM | IC50 (Rat FAAH-1): 14 nM

CCOc1ccc(-c2cc(NC[C@H](O)c3ccccc3)ncn2)cn1 [Example 64, (1R)-2-{[6-(6-Ethoxypyridin-3-yl)pyrimidin-4-yl]amino}-1-phenylethanol]
IC50 (FAAH): 50 nM | IC50 (Rat FAAH-1): 220 nM

COc1cc(C(O)CNc2cc(-c3ccc(OC(F)(F)F)cc3)ncn2)ccc1O (centres unmarked) [Example 112, 4-{1-Hydroxy-2-[(6-{4-[(trifluoromethyl)oxy]phenyl}pyrimidin-4-yl)amino]ethyl}-2-(methyloxy)phenol]
IC50 (FAAH): 524 nM | IC50 (Rat FAAH-1): 760 nM

CNc1nc(NC[C@H](O)c2ccccc2)cc(-c2ccc(C(F)(F)F)c(Cl)c2)n1 [Example 141, (1R)-2-({6-[3-Chloro-4-(trifluoromethyl)phenyl]-2-(methylamino)pyrimidin-4-yl}amino)-1-phenylethanol trifluoroacetic acid salt]
IC50 (FAAH): 12 nM | IC50 (Rat FAAH-1): 5 nM

Cc1nc(NC[C@H](O)c2ccccc2)cc(-c2ccc(Cl)c(Cl)c2)n1 [Example 155, (1R)-2-{[6-(3,4-Dichlorophenyl)-2-methylpyrimidin-4-yl]amino}-1-phenylethanol]
IC50 (FAAH): 60 nM | IC50 (Rat FAAH-1): 270 nM

OC(CNc1cc(-c2ccc(C(F)(F)F)c(Cl)c2)ncn1)c1cc(-c2ccc(Cl)cc2Cl)no1 (centres unmarked) [Example 215, 2-[6-(3-Chloro-4-trifluoromethyl-phenyl)-pyrimidin-4-ylamino]-1-[3-(2,4-dichloro-phenyl)-isoxazol-5-yl]-ethanol]
IC50 (FAAH): 240 nM | IC50 (Rat FAAH-1): 1000 nM

Nc1nc(NC[C@H](O)c2ccccc2)cc(-c2ccc(C(F)(F)F)c(Cl)c2)n1 [Example 61, (1R)-2-({2-Amino-6-[3-chloro-4-(trifluoromethyl)phenyl]pyrimidin-4-yl}amino)-1-phenylethanol trifluoroacetic acid salt]
IC50 (FAAH): 6 nM | IC50 (Rat FAAH-1): 28 nM

COc1cccc(C(O)CNc2cc(-c3ccc(OC(F)(F)F)cc3)ncn2)c1 (centres unmarked) [Example 117]
IC50 (FAAH): 32 nM | IC50 (Rat FAAH-1): 22 nM

OC(CNc1cc(-c2ccc(C(F)(F)F)c(Cl)c2)ncn1)c1ccc(Cl)c(F)c1 (centres unmarked) [Example 133, 1-(4-Chloro-3-fluoro-Phenyl)-2-[6-(3-chloro-4-trifluoromethyl-phenyl)-pyrimidin-4-ylamino]-ethanol trifluoroacetic acid salt]
IC50 (FAAH): 30 nM | IC50 (Rat FAAH-1): 15 nM

O[C@@H](CNc1cc(-c2ccc(Cl)c(F)c2)ncn1)c1ccccc1 [Example 27, (1R)-2-{[6-(4-Chloro-3-fluorophenyl)pyrimidin-4-yl]amino}-1-phenylethanol trifluoroacetic acid salt]
IC50 (FAAH): 24 nM | IC50 (Rat FAAH-1): 120 nM

N#Cc1ccc(-c2cc(NC[C@H](O)c3ccccc3)ncn2)cc1F [Example 88, 2-Fluoro-4-(6-{[(2R)-2-hydroxy-2-phenylethyl]amino}pyrimidin-4-yl)benzonitrile trifluoroacetic acid salt]
IC50 (FAAH): 65 nM | IC50 (Rat FAAH-1): 33 nM

CN(C)c1nc(NC[C@H](O)c2ccccc2)cc(-c2ccc(C(F)(F)F)c(Cl)c2)n1 [Example 101, (1R)-2-({6-[3-Chloro-4-(trifluoromethyl)phenyl]-2-(dimethylamino)pyrimidin-4-yl}amino)-1-phenylethanol trifluoroacetic acid salt]
IC50 (FAAH): 32 nM | IC50 (Rat FAAH-1): 80 nM

CNCCNc1nc(NC[C@H](O)c2ccccc2)cc(-c2ccc(C(F)(F)F)c(Cl)c2)n1 [Example 163, (1R)-2-[(6-[3-Chloro-4-(trifluoromethyl)phenyl]-2-{[2-(methylamino)ethyl]amino}pyrimidin-4-yl)amino]-1-phenylethanol hydrochloride salt]
IC50 (FAAH): 2000 nM | IC50 (Rat FAAH-1): 2000 nM

COc1ccc(C(O)CNc2cc(-c3ccc(C(F)(F)F)c(Cl)c3)ncn2)cc1OC (centres unmarked) [Example 202, 2-({6-[3-Chloro-4-(trifluoromethyl)phenyl]pyrimidin-4-yl}amino)-1-(3,4-dimethoxyphenyl)ethanol]
IC50 (FAAH): 225 nM | IC50 (Rat FAAH-1): 100 nM

OC(CNc1cc(-c2ccc(OC(F)(F)F)cc2)ncn1)c1ccncc1 (centres unmarked) [Example 125, 1-Pyridin-4-yl-2-[(6-{4-[(trifluoromethyl)oxy]phenyl}pyrimidin-4-yl)amino]ethanol]
IC50 (FAAH): 890 nM | IC50 (Rat FAAH-1): 5000 nM

OC(CNc1cc(-c2ccc3c(c2)OCO3)ncn1)c1ccccc1 (centres unmarked) [Example 232, 2-(6-Benzo[1,3]dioxol-5-yl-pyrimidin-4-ylamino)-1-phenyl-ethanol]
IC50 (FAAH): 150 nM | IC50 (Rat FAAH-1): 1000 nM

N#Cc1cc(C(O)CNc2cc(-c3ccc(C(F)(F)F)c(Cl)c3)ncn2)ccc1F (centres unmarked) [Example 210]
IC50 (FAAH): 20 nM | IC50 (Rat FAAH-1): 20 nM

OC(CNc1cc(-c2ccc(C(F)(F)F)c(Cl)c2)ncn1)c1cc(C(F)(F)F)cc(C(F)(F)F)c1 (centres unmarked) [Example 217, 1-[3,5-Bis(trifluoromethyl)phenyl]-2-({6-[3-chloro-4-(trifluoromethyl)phenyl]pyrimidin-4-yl}amino)ethanol]
IC50 (FAAH): > 10000 nM | IC50 (Rat FAAH-1): 8000 nM

OC(CNc1cc(-c2ccc(OC(F)(F)F)cc2)ncn1)c1ccccc1Cl (centres unmarked) [Example 115, 1-(2-Chlorophenyl)-2-[(6-{4-[(trifluoromethyl)oxy]phenyl}pyrimidin-4-yl)amino]ethanol]
IC50 (FAAH): 140 nM | IC50 (Rat FAAH-1): 205 nM

OC(CNc1cc(-c2ccc(OC(F)(F)F)cc2)ncn1)c1cccc(Cl)c1 (centres unmarked) [Example 116, 1-(3-Chlorophenyl)-2-[(6-{4-[(trifluoromethyl)oxy]phenyl}pyrimidin-4-yl)amino]ethanol]
IC50 (FAAH): 90 nM | IC50 (Rat FAAH-1): 110 nM
